Reference: patent publication US20180008593A1 (Purdue Pharma L.P., priority 2005, published 2018)

Key:
[1] = system: experimental human pain model, healthy volunteers; assay: Pain-related evoked potentials (EEG) after CO2 stimulation of the nasal mucosa, Example 4; assay type: in vivo
Protocol: This was a single site, single dose, double blind, placebo-controlled, 5-treatment, 5-period, randomized, balanced crossover study in healthy adult male and female subjects. […] Subjects were allocated each of the 5 treatments described in the synopsis according to a random allocation schedule (RAS). There was a 7-day washout period
Analgesic effects were assessed by means of an experimental human pain model based on the chemosomatosensory pain-related cortical potentials (CSSEPs) and pain-ratings after specific phasic nociceptive stimulation of the nasal mucosa with gaseous CO2. In addition, intensity estimates of tonic pain produced by stimulation of the nasal mucosa with dry air at controlled flow and temperature were employed.
Within the present pain model, the following were used as indicators of analgesia: • post-treatment decrease in pain-ratings and/or • post-treatment decrease in amplitudes of pain-related evoked potentials and/or • post-treatment increase in latencies of pain-related evoked potentials, relative to the pretreatment values.
1. Base-to-peak amplitudes P1, N1 and P2, peak-to-peak amplitudes P1 N1 and N1P2 of pain related evoked potentials 2. Latencies P1, N1 and P2 of pain-related evoked potentials 3. Intensity estimates of phasic (C02-) pain 4. Intensity estimates of tonic pain
In the first 20 minutes, 40 phasic CO2-stimuli were applied (20 stimuli at a concentration of 70% and 20 at a concentration of 60%, interstimulus interval 30 s). In response to these stimuli, pain-related potentials and subjective intensity estimates were recorded.
CO2-stimuli were mixed in a constantly flowing air stream with controlled temperature (36.5° C.) and humidity (80% relative humidity) presented to the left nostril (stimulus duration 200 ms, interstimulus interval 30 s). […] During intervals between phasic stimuli subjects performed a simple tracking task on a video screen. Using a joystick, they had to keep a small square inside a larger one that randomly moved around.
The EEG was recorded from 5 positions of the international 10/20 system (Cz, C3, C4, Fz and Pz; see FIG. 40) referenced to linked earlobes (A1+A2). Possible eye blink artifacts were monitored from an additional site (Fp2/A1+A2). Stimulus linked EEG segments of 2040 ms duration were sampled with a frequency of 250 Hz (band pass 0.2-30 Hz, pre-stimulus period 512 ms). The recorded analog EEG segments were then converted to digital and filed electronically. The average value for each recording position was separately calculated, discarding all eye blink contaminated records. By this procedure pain-related evoked potentials were obtained in response to the painful CO2 stimuli. Base to peak amplitudes P1, N1 and P2, the peak to peak amplitudes P1 N1 and N1 P2 and the latencies of P1, […] and P2 were measured. Wherever the time of measurement was used in the data analysis, the mid-time of a session was taken. FIG. 40 presents the components of the pain-related evoked potentials.

[2] = system: oxycodone-pump and vehicle-pump implanted rats; assay: Oxycodone tolerance: tail withdrawal dose response in pump-implanted rats, Example 5; assay type: in vivo, rat
Protocol: Animals were randomized and acclimated for one week as described in Section 3.1. Vehicle control pumps contained sterile filtered isotonic saline. Alzet 2ML 1 osmotic mini pumps were loaded with oxycodone solution as described in “Alzet Osmotic Minipumps: Technical Information Manual” from DURECT Corp., Cupertino, Calif. The loaded pumps were primed by placing them in sterile isotonic saline at 37° […] for 3-h before implanting them in the rats. The rats were briefly anesthetized with isoflurane USP (Henry Schein, Inc. Melville, N.Y., U.S.A.) for implantation of 2ML 1 osmotic minipumps that deliver at a rate […]. After induction of anesthesia (as noted by the absence of the righting reflex and foot pinch response). Sterile scissors were used to make a 1.5 cm incision that was expanded under the skin with hemostats in a caudal direction to open the subcutaneous space for the pump. A sterile 2ML 1 pump was then inserted under the skin and moved to the dorsum. The rats were returned to their home cages and monitored until they completely recovered from anesthesia. Pump delivery began at 4-h (DU REGT Corp.) allowing the rats 1-h to recover from the anesthesia. Therefore, time zero began 1-h after implantation of the pumps. The rats were monitored daily for signs of distress, drug toxicity, or problems with the surgical site.
If the value was below 50% then the predicted level of tolerance was greater than 10-fold. The infusion dose that elicited approximately a 50% MPE with the challenge was selected as the 10-fold model of tolerance.
After this, the individual groups (8/group) were challenged with increasing doses of oxycodone for construction of a dose-response curve for calculation of the ED80 value. Potency-ratio determinations were made between the oxycodone-pump and vehicle-pump groups.

[3] = system: patients with severe chronic pain; assay: Incidence and duration of diarrhea and discontinuations due to diarrhea, Example 1; details: naloxone 0 mg
[4] = system: male Sprague-Dawley rats; assay: 51° C. warm-water tail withdrawal test, i.v. oxycodone in opioid naive rats, Example 5
[5] = 0.3 mg/kg oxycodone free-base i.v.

COc1ccc2c3c1O[C@H]1C(=O)CC[C@@]4(O)[C@@H](C2)N(C)CC[C@]314 [Oxycodone, oxycodone]
Magnitude of reduction of amplitude P1N1 at C4 compared to baseline ([1]; 60% CO2, 20 mg oxycodone): 35.3% | Amplitude P1N1 of pain-related evoked potentials ([1]; 60% CO2, recording position C4): significant compared to placebo | Latency P1 of pain-related evoked potentials ([1]; 60% CO2, recording position C4): significant compared to placebo | Latency P1 of pain-related evoked potentials ([1]; 60% CO2, recording position Pz): significant compared to placebo | Latency P1 of pain-related evoked potentials ([1]; 70% CO2, recording position C3): significant compared to placebo | Latency P1 of pain-related evoked potentials ([1]; 70% CO2, recording position Cz): significant compared to placebo | Latency P2 of pain-related evoked potentials ([1]; 70% CO2, recording position Cz): significant compared to placebo | Latency P1 of pain-related evoked potentials ([1]; 70% CO2, recording position Fz): significant compared to placebo | Latency P1 of pain-related evoked potentials ([1]; 70% CO2, recording position Pz): significant compared to placebo | Latency P2 of pain-related evoked potentials ([1]; 70% CO2, recording position Pz): significant compared to placebo | Rightward shift in the oxycodone dose-response curve (tolerance) ([2]; 7-day oxycodone infusion […] vs vehicle pump): 8.5 fold | ED50 ([2]; Rattus norvegicus, iv, i.v. oxycodone, vehicle-pump implanted rats, read-out: ED50 value (antinociception)): 0.32 mg/kg | % MPE on challenge with […] oxycodone ([2]; after s.c. oxycodone infusion […] for 7 days): ~50 % MPE | Discontinuations due to Diarrhea, n/N ([3]; daily oxycodone 40 mg): 0/17 | Incidence of Discontinuations due to Diarrhea ([3]; daily oxycodone 40 mg): (0.0%) | Discontinuations due to Diarrhea, n/N ([3]; daily oxycodone 60 mg): 0/17 | Incidence of Discontinuations due to Diarrhea ([3]; daily oxycodone 60 mg): (0.0%) | Discontinuations due to Diarrhea, n/N ([3]; daily oxycodone 80 mg): 0/16 | Incidence of Discontinuations due to Diarrhea ([3]; daily oxycodone 80 mg): (0.0%) | First test point at which antinociception was present [4, 5]: 2.5 min | Obvious signs (sedation, motor control, respiration, toxicity) [4, 5]: no obvious signs were noted | Time antinociception stayed significantly above baseline latencies [4, 5]: 40 min | Peak time of antinociception ([4]; 0.3 mg/kg oxycodone free-base i.v., 51° C. tail withdrawal): 10 min | ED80 value (antinociception) ([4]; oxycodone free-base i.v., tested at 10-min): 0.41 mg/kg
